Here are results for 1 molecule from patent publication US20100234238A1, “METHOD FOR PROFILING KINASE INHIBITORS” (Janssen Pharmaceutica N V, priority 2006, published 2010).

Assay [1] has as its target EGFR L858R (Homo sapiens, UniProt P00533, L858R). Nature of the assay: IC50 on mutant EGFR. It counts as biochemical.
The test system of assay [2] is 27 cell lines, representing diverse cancer cell types. Nature of the assay: Inhibition of proliferation of cell lines in vitro (response status). It counts as cell-based. The following applies: MTKI. Also noted: key: R: A responder is predicted when minimally 4 peptides have a ratio <0.8; NR = Non-Responder to MTKI. How it is done: It was tested whether the Pamchip peptide arrays are a useful tool to predict the response of a cell line to the multi-targeted kinase inhibitor, MTKI. MTKI inhibits the proliferation of a range of cell lines in vitro with widely varying IC50's. The lysates prepared from these 27 cell lines, representing diverse cancer cell types, were profiled on the peptide arrays in the absence or presence of 5 μM MTKI, in 6 replicates for each condition. In this panel, 13 cell lines were defined as responder cell lines (IC50<3 μM; cell lines are ordered according to increasing IC50 in Example 1, whereas 14 cell lines are classified as ‘non-responder’ cell lines (IC50>10 μM). Intermediary cell lines and cell lines with highly variable IC50 measurements were omitted from the analysis. The experiment included the highly responsive H3255 lung cancer cell line, which overexpresses mutant EGFR L858R. This mutant variant is highly responsive to MTKI, which is an ATP-competitive compound that binds to the active conformation of EGFR (similar to erlotinib and gefitinib). Accordingly, the most profound changes induced by MTKI in lysate kinase activity can be observed for this highly responsive cell line. […]

Assay [3] has as its target Her2 (Homo sapiens, UniProt P04626). In words: Her2 inhibition. In kind it is biochemical.

Her2, sequence (P04626 23-1255): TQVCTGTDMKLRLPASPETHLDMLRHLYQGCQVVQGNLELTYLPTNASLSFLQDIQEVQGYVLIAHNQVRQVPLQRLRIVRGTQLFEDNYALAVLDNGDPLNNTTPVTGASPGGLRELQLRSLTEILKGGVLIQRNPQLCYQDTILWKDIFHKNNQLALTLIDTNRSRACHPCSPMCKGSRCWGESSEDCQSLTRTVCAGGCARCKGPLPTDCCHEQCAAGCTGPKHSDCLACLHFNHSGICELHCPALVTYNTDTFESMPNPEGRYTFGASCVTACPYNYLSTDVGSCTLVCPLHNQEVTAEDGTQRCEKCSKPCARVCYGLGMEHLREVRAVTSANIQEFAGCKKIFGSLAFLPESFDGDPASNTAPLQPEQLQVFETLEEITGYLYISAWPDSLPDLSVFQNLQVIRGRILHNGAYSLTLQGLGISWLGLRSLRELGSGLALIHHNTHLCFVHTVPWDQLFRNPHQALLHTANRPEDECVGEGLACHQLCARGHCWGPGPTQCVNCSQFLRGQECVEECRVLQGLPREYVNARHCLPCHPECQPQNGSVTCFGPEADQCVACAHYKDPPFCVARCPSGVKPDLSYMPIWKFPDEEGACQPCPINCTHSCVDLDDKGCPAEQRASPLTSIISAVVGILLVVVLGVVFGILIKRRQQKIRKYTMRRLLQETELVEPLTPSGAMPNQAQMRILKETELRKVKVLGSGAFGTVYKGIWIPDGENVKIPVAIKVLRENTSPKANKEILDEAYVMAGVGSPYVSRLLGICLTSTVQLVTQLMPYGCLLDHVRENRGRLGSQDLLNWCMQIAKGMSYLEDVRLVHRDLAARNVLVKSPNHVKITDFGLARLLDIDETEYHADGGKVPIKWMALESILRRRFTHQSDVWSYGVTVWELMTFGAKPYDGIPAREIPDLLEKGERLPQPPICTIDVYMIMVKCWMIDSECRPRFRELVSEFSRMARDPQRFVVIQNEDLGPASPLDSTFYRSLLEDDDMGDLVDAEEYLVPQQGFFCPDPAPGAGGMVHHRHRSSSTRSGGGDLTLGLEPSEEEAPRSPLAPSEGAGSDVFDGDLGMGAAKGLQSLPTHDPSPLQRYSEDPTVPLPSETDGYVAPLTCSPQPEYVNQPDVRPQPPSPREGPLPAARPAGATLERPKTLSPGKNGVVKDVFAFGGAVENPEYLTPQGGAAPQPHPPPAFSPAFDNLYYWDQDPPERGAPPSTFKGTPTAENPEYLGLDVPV
EGFR L858R, sequence (P00533 25-1210 L858R): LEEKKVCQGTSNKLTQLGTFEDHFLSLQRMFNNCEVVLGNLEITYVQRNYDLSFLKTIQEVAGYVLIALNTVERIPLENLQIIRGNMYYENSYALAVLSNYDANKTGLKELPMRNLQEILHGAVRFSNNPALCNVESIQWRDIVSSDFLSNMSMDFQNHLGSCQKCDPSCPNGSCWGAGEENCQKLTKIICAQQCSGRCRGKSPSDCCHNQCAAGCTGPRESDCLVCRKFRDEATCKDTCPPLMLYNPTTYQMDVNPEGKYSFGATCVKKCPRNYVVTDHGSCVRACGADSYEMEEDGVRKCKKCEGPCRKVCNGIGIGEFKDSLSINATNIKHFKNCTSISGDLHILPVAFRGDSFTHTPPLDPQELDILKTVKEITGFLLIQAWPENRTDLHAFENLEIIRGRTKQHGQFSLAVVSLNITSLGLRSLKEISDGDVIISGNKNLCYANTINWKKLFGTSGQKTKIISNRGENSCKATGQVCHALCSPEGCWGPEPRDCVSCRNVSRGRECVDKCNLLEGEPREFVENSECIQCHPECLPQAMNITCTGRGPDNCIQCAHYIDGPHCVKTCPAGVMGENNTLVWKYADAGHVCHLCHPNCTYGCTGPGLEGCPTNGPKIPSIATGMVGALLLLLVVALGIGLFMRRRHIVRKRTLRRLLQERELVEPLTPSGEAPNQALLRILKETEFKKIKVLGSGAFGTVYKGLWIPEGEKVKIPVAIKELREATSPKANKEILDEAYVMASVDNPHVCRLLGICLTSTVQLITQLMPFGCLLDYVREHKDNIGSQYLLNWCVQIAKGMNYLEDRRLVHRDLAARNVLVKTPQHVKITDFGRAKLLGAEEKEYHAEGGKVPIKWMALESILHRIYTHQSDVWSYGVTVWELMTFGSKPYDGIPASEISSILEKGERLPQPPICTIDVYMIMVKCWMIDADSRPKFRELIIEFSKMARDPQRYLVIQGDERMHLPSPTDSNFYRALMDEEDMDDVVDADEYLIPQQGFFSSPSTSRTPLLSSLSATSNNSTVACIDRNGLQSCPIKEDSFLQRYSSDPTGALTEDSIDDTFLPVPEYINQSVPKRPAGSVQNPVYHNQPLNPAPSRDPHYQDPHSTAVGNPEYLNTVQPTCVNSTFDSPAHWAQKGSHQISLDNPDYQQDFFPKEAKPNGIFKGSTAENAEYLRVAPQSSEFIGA

For the molecule `COc1cc2ncnc3c2cc1OCCCCCN(C)Cc1ccc(Br)cc1N3` [MTKI, 4,6-ethanediylidenepyrimido[4,5-b][6,1,12]benzoxadiazacyclopentadecine, 17-bromo-8,9,10,11,12,13,14,19-octahydro-20-methoxy-13-methyl-], the “IC50 on EGFR 1858R compared to Tarceva” value in assay [1] is “lower IC50”. Also, the response status entry in assay [2] (GTL16 cell line) and in assay [2] (MOLT4 cell line) was “NR” throughout. Also, the “inhibition of Her2 compared to Tarceva” value in assay [3] is “better inhibitor than Tarceva”.
